Test results as given in PMC8955370, “Triterpenes and Phenolic Compounds from Euphorbia deightonii with Antiviral Activity against Herpes Simplex Virus Type-2” (Plants, 2022).
Where two headings read alike, the source gives them in different places.

Columns and labels:
[1] = MTT cell viability assay for cytotoxic concentration 50% (CC50); type: cell-based; conditions: African green monkey
Experimental: For the determination of cytotoxic concentration 50% (CC50), a cell viability test was performed as an MTT assay using the Vero cell line. Cells were seeded at a density of 4 × 10^4 cells/well. After an overnight period, fresh medium was complemented with serial 2-fold dilutions of all compounds 1–8. The cells were incubated at 37 °C for 24 h. Later, 20 μL of thiazolyl blue tetrazolium bromide (MTT; Sigma-Aldrich, St. Louis, MO, USA) was added to each well. After an additional incubation at 37 °C for 4 h, sodium dodecyl sulphate (Sigma-Aldrich, St. Louis, MO, USA) solution (10% in 0.01 M HCI) was added and incubated overnight. CC50 was then determined by measuring the OD at 550 nm (ref. 630 nm) with the EZ READ 400 ELISA reader (Biochrom, Cambridge, UK). The assay was replicated four times for each concentration.

[2] = system: HSV-2; test: Anti-HSV-2 qRT-PCR assay on infected Vero cells; conditions: for IC50: Human alphaherpesvirus 2, Vero; for Selectivity Index: SI = CC50/IC50; for Anti-HSV-2 Activity IC50: Vero cells infected with 0.01 MOI HSV-2, 24 h, qRT-PCR
[3] = system: HSV-2; conditions: by reducing HSV-2 infectivity; cited from earlier work
[4] = system: rat epithelioid; parameters: method as in PMID 26274958; conditions: rat epithelioid cells; cited from earlier work
[5] = system: human normal liver (L–O2); parameters: method as in PMID 23109850; conditions: L–O2 cells; cited from earlier work
[6] = system: gastric epithelial cell lines (GES–2); parameters: method as in PMID 23109850; conditions: GES–2 cells; cited from earlier work
[7] = system: six terrestrial pathogenic bacteria; parameters: method as in PMID 24914904; conditions: cited from earlier work
[8] = system: human HT-1080 fibrosarcoma; parameters: method as in PMID 9677271; conditions: cited from earlier work
[9] = system: murine colon 26-L5 carcinoma cells; parameters: method as in PMID 9677271; conditions: cited from earlier work
[10] = system: Bacillus subtilis; parameters: method as in doi:10.1016/S0031-9422(00)81759-8; conditions: cited from earlier work
[11] = system: Klebsiella pneumoniae; parameters: method as in doi:10.1016/S0031-9422(00)81759-8; conditions: cited from earlier work
[12] = system: Trychophyton rubrum; parameters: method as in doi:10.1016/S0031-9422(00)81759-8; conditions: cited from earlier work
[13] = system: influenza A virus (A/PR/8/34, H1N1); parameters: method as in PMID 28081470; conditions: not effective; cited from earlier work
[14] = system: porcine circovirus type 2 (PCV2); parameters: method as in doi:10.1007/s12257-014-0520-8; conditions: at the concentration of 0.01563 mg/mL; cited from earlier work
[15] = system: hepatitis B virus (HBV); parameters: method as in PMID 31557836; conditions: HepG2.2.15 model transfected with HBV; cited from earlier work
[16] = system: acyclovir (ACV)-resistant strains of HSV-1; parameters: method as in PMID 32545813; conditions: ACV-resistant HSV-1; cited from earlier work
[17] = system: acyclovir (ACV)-resistant strains of HSV-2; conditions: ACV-resistant HSV-2; cited from earlier work
[18] = system: HSV-1; parameters: method as in PMID 14526920; conditions: cited from earlier work
[19] = system: HSV-2; parameters: method as in PMID 14526920; conditions: cited from earlier work
[20] = system: HSV; parameters: method as in PMID 14998984; conditions: cited from earlier work
[21] = 24 h, read-out: Anti-HSV-2 Activity IC50
[22] = Vero cells, MTT assay, 24 h, read-out: CC50

Compound: C=CC(OC)c1cc(OC)c2c(c1)[C@@H](COC(C)=O)[C@H](c1ccc(O)c(OC)c1)O2 (relative stereo) [Compound 4, trans-(2-(4-hydroxy-3-methoxyphenyl)-7-methoxy-5-(1-methoxyallyl)-2,3-dihydrobenzofuran-3-yl)methyl acetate]
- CC50 at 24 h [1]: 39.8 ± 4.73 µM
- IC50 [2, 21]: 11.7 ± 0.79 µM
- Selectivity Index [2]: 3.389

Compound: O=C(OC1C(O)C(O)OC2COC(=O)c3cc(O)c(O)c(O)c3-c3c(cc(O)c(O)c3O)C(=O)OC21)c1cc(O)c(O)c(O)c1 [3-O-galloyl-4,6-(S)-hexahydroxydiphenoyl-D-glucose]
- HSV-2 multiplication [3]: inhibit HSV-2 multiplication

Compound: Nc1nc2c(ncn2COCCO)c(=O)[nH]1 [Acyclovir, reference compound]
- CC50 at 24 h [1]: 100 ± 6.15 µM
- IC50 [2, 21]: 0.77 ± 0.032 µM
- Selectivity Index [2]: 129.87

Compound: C=C(CC[C@@H](C)[C@H]1CC[C@@]2(C)C3=C(C(=O)C[C@]12C)[C@@]1(C)CC[C@H](O)C(C)(C)[C@@H]1C[C@@H]3O)C(C)C [Compound 1, 3β,7β-dihydroxy-24-methylenelanosta-8-ene-11-one]
- CC50 at 24 h [1]: 35.5 ± 1.62 µM
- IC50 [2, 21]: 7.05 ± 0.25 µM
- Selectivity Index [2]: 5.03

Compound: CC(C)=CCC[C@@H](C)[C@@H]1CC[C@]2(C)C3=C(CC[C@@]12C)[C@@]1(C)CC[C@H](O)C(C)(C)[C@@H]1CC3=O [Compound 2, kansenone]
- CC50 at 24 h [1, 22]: 52.1 ± 2.21 µM
- cytotoxicity [4]: strong cytotoxicity
- cytotoxicity [5]: strong cytotoxicity
- cytotoxicity [6]: strong cytotoxicity
- Anti-HSV-2 Activity IC50 [2]: inactive

Compound: C=C(CC[C@H](C)[C@@H]1CC[C@@]2(C)C3=C(CC[C@]12C)[C@@]1(C)CC[C@H](O)C(C)(C)[C@@H]1CC3=O)C(C)C [Compound 3, euphorbol-7-one]
- CC50 at 24 h [1, 22]: 7.84 ± 0.96 µM
- antibacterial activity [7]: ineffective
- IC50 [2, 21]: 2.42 ± 0.06 µM
- Selectivity Index [2]: 3.23

Compound: COc1cc([C@H]2Oc3c(OC)cc(/C=C/COC(C)=O)cc3[C@@H]2COC(C)=O)ccc1O [Compound 5, dehydrodiconiferyl-diacetate]
- CC50 at 24 h [1]: 82.5 ± 8.94 µM
- cytotoxic activity [8]: moderate cytotoxic activity
- cytotoxic activity [9]: moderate cytotoxic activity
- Anti-HSV-2 Activity IC50 [2]: inactive

Compound: COc1cc(C(OC)C(COC(C)=O)Oc2ccc(/C=C/COC(C)=O)cc2OC)ccc1O (centres unmarked) [Compound 6, marylaurencinol D]
- CC50 at 24 h [1]: 71.6 ± 5.83 µM
- antimicrobial activity [10]: weak potency
- antimicrobial activity [11]: no effect
- antimicrobial activity [12]: no effect
- Anti-HSV-2 Activity IC50 [2]: inactive

Compound: COc1cc2ccc(=O)oc2cc1OC [Compound 7, 6,7-dimethoxycoumarin]
- CC50 at 24 h [1]: 0.35 ± 0.016 µM
- IC50 against influenza A virus [13]: > 15 µg/mL
- effect on PCV2 replication [14]: replication-inducing activity
- anti-hepatitis B virus activity [15]: efficiently inhibits viral replication
- IC50 [2, 21]: 0.032 ± 0.0021 µM
- IC50 ([2]; read-out: IC50 (anti-HSV-2)): 0.032 µM
- Selectivity Index [2]: 10.923

Compound: COc1cc2c(=O)oc3c(OC)c(O)cc4c(=O)oc(c1OC)c2c34 [Compound 8, 3,4,3′-tri-O-methylellagic acid]
- CC50 at 24 h [1]: 25.7 ± 1.84 µM
- Anti-HSV-2 Activity IC50 [2]: inactive

Compound: O=C1OC[C@H]2OC(=O)c3cc(O)c(O)c(O)c3-c3c(O)c(O)c(O)c4c3C(=O)O[C@H]([C@H]3OC(=O)c5c-4c(O)c(O)c(O)c5[C@H]3O)[C@@H]2OC(=O)c2cc(O)c(O)c(O)c2-c2c1cc(O)c(O)c2O [castalagin]
- antiviral activity [16]: activity against acyclovir (ACV)-resistant strains of HSV-1 and HSV-2 was proved
- antiviral activity [17]: activity against acyclovir (ACV)-resistant strains of HSV-1 and HSV-2 was proved

Compound: C=C(C)[C@@H]1CC[C@]2(C)CC[C@]3(C)[C@H](CC[C@@H]4[C@@]5(C)CCC(=O)C(C)(C)[C@@H]5CC[C@]43C)[C@@H]12 [lupenone]
- viral plaque inhibitory effect [18]: strong viral plaque inhibitory effect
- viral plaque inhibitory effect [19]: strong viral plaque inhibitory effect

Compound: O=C(OC1OC2COC(=O)c3cc(O)c(O)c(O)c3-c3c(cc(O)c(O)c3O)C(=O)OC3C2OC(=O)C24CC5(O)OC6(OCC(O)C6O)C2OC2(O)C4c4c(cc(O)c(O)c4OC52O)C(=O)OC13)c1cc(O)c(O)c(O)c1 (centres unmarked) [putranjivain A]
- viral attachment and cell penetration [20]: inhibition of viral attachment and cell penetration
- viral infectivity [20]: significantly reduce viral infectivity

Compound: O=C1OCC2OC(=O)c3cc(O)c(O)c(O)c3-c3c(O)c(O)c(O)c4c3C(=O)OC(C2OC(=O)c2cc(O)c(O)c(O)c2-c2c1cc(O)c(O)c2O)C1OC(=O)c2c-4c(O)c(O)c(O)c2C1O (centres unmarked) [vescalagin]
- antiviral activity [16]: activity against acyclovir (ACV)-resistant strains of HSV-1 and HSV-2 was proved
- antiviral activity [17]: activity against acyclovir (ACV)-resistant strains of HSV-1 and HSV-2 was proved

Compound: grandinin
- antiviral activity [16]: activity against acyclovir (ACV)-resistant strains of HSV-1 and HSV-2 was proved
- antiviral activity [17]: activity against acyclovir (ACV)-resistant strains of HSV-1 and HSV-2 was proved
